Data from paper PMC6952396, “Structural basis for itraconazole-mediated NPC1 inhibition” (Nature Communications, 2020).

How the values were obtained:
[1] = tested on: T1, human NPC1; conditions: NPC1 reconstituted in lipid nanodiscs; cited from earlier work
T1 construct: Strep-tag; made in house; host or cells: HEK-293S GnTI- cells (baculovirus-mediated transduction)

[2] = tested on: NPC1 mutants (W381E, L613E, Y628S, I685S, and Y1225E); assay: Cross-linking of P-X to NPC1 binding-site mutants in intact HEK293S cells; format: cell-based, human; conditions: 0.3 μM P-X
Text: The I-Br binds to a hydrophobic cavity that is generated by the SSD, the MLD and the CTD in the center of NPC1 (Fig. 3d). Residues in the N-terminal loop and C-terminal helices of the MLD and the CTD, as well as TMs 3, 4, 5, and 13 contribute to the cavity that accommodates I-Br (Figs. 3d, 4a, b). The terminal sec-butyl moiety of I-Br inserts into the cavity and is contacted by residues W381, I609, L613, I685, F1087, I1220, and Y1225 (Fig. 4a, b). […] To validate our structural observation, we have generated five NPC1 mutants (W381E, L613E, Y628S, I685S, and Y1225E) located in the binding site and individually transfected the mutant cDNAs into HEK293S cells.
pNPC1 encoding wild-type human NPC1 (amino acids 1–1278) followed sequentially by three tandem copies of the Flag epitope tag ([…]) was constructed into pcDNA3.1. Expression is achieved with the cytomegalovirus (CMV) promoter. […]
For cross-linking of P-X to NPC1 and mutants in intact cells, the mammalian HEK-293S GnTI^- cells (ATCC, CRL-3022) overexpressing NPC1 and mutants were set up in 500 mL of freestyle medium with 2% FCS at a density of 2 × 10^6 cells per ml. […] An aliquot of each sample was subjected to 8% SDS/PAGE, and fluorescent-labeled proteins were visualized by in-gel fluorescence as described above. […]

[3] = tested on: NPC1-mediated cholesterol export; conditions: cited from earlier work

Row | SMILES | cross-linking of P-X to purified NPC1 [1] | cross-linking of P-X to NPC1 mutants in cells [2] | inhibition of cholesterol export from lysosomes [3]
1 | C#CCOc1ccc(C(=O)c2ccc(C(=O)OC(C)C(CC)n3ncn(-c4ccc(N5CCN(c6ccc(OCC7COC(Cn8cncn8)(c8ccc(F)cc8F)O7)cc6)CC5)cc4)c3=O)cc2)cc1 (stereo not drawn) [P-X] | cross-linked | not efficiently cross-linked | 
2 | CCC(C)n1ncn(-c2ccc(N3CCN(c4ccc(OCC5COC(Cn6cncn6)(c6ccc(Cl)cc6Cl)O5)cc4)CC3)cc2)c1=O (stereo not drawn) [Itraconazole mixture, itraconazole] |  |  | inhibit cholesterol export from lysosomes
